Measured values as given in article PMC9555560, “Fast relaxing red and near-IR switchable azobenzenes with chalcogen and halogen substituents: periodic trends, tuneable thermal half-lives and chalcogen bonding” (Chemical Science, 2022).

Legend:
Assay type in all cases: physicochemical
[1] = Half-life of the Z → E thermal isomerisation (UV-vis absorbance followed over time after irradiation); settings: for τ 1/2: 298 K
Procedure: (§1) The E → Z photo-isomerisation and half-life for the Z → E thermal isomerisation was evaluated for all derivatives (Fig. 7 and Table 1, see ESI ^† for original data). To our surprise, the half-lives for (Z)-X2,m-Y2 derivatives were in the order of hours to days for X = F and Cl: the effect of the meta group was not as drastic as anticipated. We typically observed a ∼4 fold decrease in half-life by substituting H with OMe, and a further 3-fold drop from OMe to NMe2 for X = F, Cl and SEt. The nature of the ortho-substituent appeared to be the main influence on τ1/2 (F > Cl ≫ SEt). However, these predictable trends observed for the meta-substitution allow for precise tuning of thermal half-lives. The photo-stationary states (PSSs) of these derivatives ranged from 48–77% Z isomer (Table 1).
All UV-vis spectra were determined in DMSO solution. […]
Lambert plot) to determine the molar extinction coefficient ε. For each slow relaxing compound, the E isomer sample at 40 µM was irradiated with the appropriate wavelength of light to generate the photo-stationary state, and another spectrum was run. This spectrum was normalised to units of ε and overlaid with the dark (100% E isomer) spectrum. […]
Photo-irradiation of liquid samples was carried out using Thorlabs high-power mounted LEDs (models […]
M530L4 (green, 530 nm); in-house custom built set-ups using optical components supplied by Thorlabs, as described in reference 2
Equation y = y0 + A1*exp(-(x-x0)/t1
Figure S327. Lifetime plot of (Z)-Br4-NHBoc based on following UV-Vis absorbance over time after irradiation with 625 nm light (rt, DMSO). Data consistent with NMR half-life data.
Figure S328. Reversible of switching of I4-NHBoc over time after irradiation with 6 60 nm light (rt, DMSO). Dots : raw data, Line: 1st order Exponential Fit […]

[2] = UV-vis spectra of the E isomers (n → π* absorption maximum); settings: E isomer, DMSO
Description: The UV-vis spectra of the (E)-X4 derivatives and (E)-X2,m-Y2 are shown in Fig. 3 (analogous spectra for the Z isomers, and deconvoluted spectra are available in the ESI ^†). […] The n → π* transition maximum, λmax, typically followed the order meta-H > –NMe2 > –OMe and ortho-S > Cl > F. It is clear from these experiments that the four ortho X substituents in the X4 derivatives are essential for achieving the deeply red-shifted tails which allows for red/near-IR triggered photo-isomerisation.
(§2) All UV-vis spectra were determined in DMSO solution. Extinction coefficients were determined by recording a UV-vis spectra for the E isomer at 10, 20, 30, 40 µM in DMSO respectively. The absorbance at the maximum of the π - π* transition of the E‐isomers was plotted against concentration (Beer-Lambert plot) to determine the molar extinction coefficient ε. For each slow relaxing compound, the E isomer sample at 40 µM was irradiated with the appropriate wavelength of light to generate the photo-stationary state, and another spectrum was run. This spectrum was normalised to units of ε and overlaid with the dark (100% E isomer) spectrum.

[3] = E → Z photo-isomerisation with LEDs / photo-stationary state (PSS) determination; settings: under irradiation
Procedure: as §1
Remarkably, it was possible to photo-switch the tetra-iodo derivative I4-ester using near-IR light (730 nm) (Fig. 8C). […] Photo-isomerisation was not detected for the ortho-telluro derivatives. This is consistent with findings by Haberhauer and co-workers, who propose that the strong chalcogen bonds in the E isomer of a PhTe-substituted azobenzene lead to dramatic energy differences between the E and Z isomers, which suppresses photoswitching.[43] The photo-stationary states of the halogen X4 derivatives range from 50–84% (Table 1) and could also be determined for the slower relaxing chalcogen derivatives (PSS 46–95%, see Fig. S308–S323 ^† for original data).
as §2, with “spectrum. […]” for “spectrum.”

[4] = GSH stability study (decay of absorbance in phosphate buffer with 10 mM glutathione); settings: for t1 of 1st order exponential decay fit (decomposition with GSH): 100 mM phosphate buffer containing 10 mM GSH degassed with N2, 298 K; for τ 1/2 (10 mM GSH): 100 mM phosphate buffer pH 7 containing 10 mM GSH, degassed with N2, 298 K, para substituent CH2NH2·TFA
Procedure: Finally, the stability of the X4 derivatives were assessed by exposing them to the highest expected intracellular concentration of glutathione (GSH, 10 mM).[28] This was achieved by treating the Boc-protected amino-methyl derivatives X4-NHBoc (X = F, Cl, Br, I, OMe, SMe and SeMe) with TFA to remove the protecting groups. The resulting ammonium-appended AB derivative was dissolved in N2-degassed 100 mM phosphate buffer at pH 7 containing 10 mM GSH, and the changes in absorbance were monitored over an extended period. […] Strong σ-donating substituents are also proposed to aid diazo lone pair protonation, and subsequent GSH attack.[25]
A 10 mM reduced glutathione (GSH) solution was prepared in degassed 100 mM sodium phosphate buffer (at least 15 minutes of N 2 bubbled through the buffer solution prior to addition to GSH). The absorption of the solution was measured periodically at 25 °C, then fitted to a 1 st Order exponential […]
Equation y = y0 + A1*exp(-(x-x0)
Figure S366. Decomposition of F4-CH2NH2•TFA Conditions: 100 mM phosphate buffer containing 10 mM GSH degassed with N2. T = 298 K. […]

[5] = Z → E thermal isomerisation, DMSO

τ 1/2 [1, 5]	λ max of n → π* transition [2]	SMILES	further results
3 m	514.5 nm	CCSc1cc(CNC(=O)OC(C)(C)C)cc(SCC)c1/N=N/c1c(SCC)cc(CNC(=O)OC(C)(C)C)cc1SCC [(SEt)4-NHBoc]	–
0.0144 h	590.0 nm	CCOC(=O)c1cc(SCC)c(/N=N/c2c(SCC)cc(C(=O)OCC)cc2SCC)c(SCC)c1 [(SEt)4-ester]	–
–	512.9 nm	CCSc1cc(CNC(=O)OC(C)(C)C)c(OC)c(SCC)c1/N=N/c1c(SCC)cc(CNC(=O)OC(C)(C)C)c(OC)c1SCC [(SEt)4,m-OMe2-NHBoc]	Stability to light [3]: unstable to light
–	–	CC(C)(C)OC(=O)NCc1cc(I)c(/N=N/c2c(I)cc(CNC(=O)OC(C)(C)C)cc2I)c(I)c1 [I]	t1 of 1st order exponential decay fit (decomposition with GSH) [4]: 3971 ± 9.47 s; τ 1/2 (10 mM GSH) [4]: 0.7 h
77 h	387.1 nm	COc1cc(N=Nc2cc(OC)c(CNC(=O)OC(C)(C)C)cc2F)c(F)cc1CNC(=O)OC(C)(C)C [F2,m-OMe2]	–
–	500.3 nm	OCc1cc(I)c(/N=N/c2c(I)cc(CO)cc2I)c(I)c1 [I4-OH]	–
5 m	514.3 nm	CC(C)(C)OC(=O)NCc1cc(I)c(N=Nc2c(I)cc(CNC(=O)OC(C)(C)C)cc2I)c(I)c1 [I4-NHBoc]	τ1/2 (Z) ([1]; Z → E thermal isomerisation, printed in Fig. 1 / Fig. 8): 5 min
3 m	511.8 nm	O=C1c2ccccc2C(=O)N1Cc1cc(I)c(/N=N/c2c(I)cc(CN3C(=O)c4ccccc4C3=O)cc2I)c(I)c1 [I4-NPhth]	–
0.0128 h	519.6 nm	CCOC(=O)c1cc(I)c(N=Nc2c(I)cc(C(=O)OCC)cc2I)c(I)c1 [I4-ester]	–
–	–	CC(C)(C)OC(=O)NCc1cc(Cl)c(/N=N/c2c(Cl)cc(CNC(=O)OC(C)(C)C)cc2Cl)c(Cl)c1 [Cl]	t1 of 1st order exponential decay fit (decomposition with GSH) [4]: 14241.72745 ± 14.23 s; τ 1/2 (10 mM GSH) [4]: 2.7 h
9 m	464.1 nm	CCSc1cc(CNC(=O)OC(C)(C)C)c(OC)cc1/N=N/c1cc(OC)c(CNC(=O)OC(C)(C)C)cc1SCC [(SEt)2,m-OMe2]	–
5 m	514.2 nm	CSc1cccc(SC)c1/N=N/c1c(SC)cccc1SC [(SMe)4-H]	–
34 h	471.0 nm	CC(C)(C)OC(=O)NCc1ccc(N=Nc2ccc(CNC(=O)OC(C)(C)C)cc2Cl)c(Cl)c1 [Cl2,m-H2]	–
3 m	514.4 nm	[N-]=[N+]=NCc1cc(I)c(/N=N/c2c(I)cc(CN=[N+]=[N-])cc2I)c(I)c1 [I4-N3]	–
–	–	CC(C)(C)OC(=O)NCc1cc(Br)c(N=Nc2c(Br)cc(CNC(=O)OC(C)(C)C)cc2Br)c(Br)c1 [Br]	t1 of 1st order exponential decay fit (decomposition with GSH) [4]: 25249.56343 ± 57.34 s; τ 1/2 (10 mM GSH) [4]: 5 h
160 h	462.6 nm	CC(C)(C)OC(=O)NCc1cc(Cl)c(N=Nc2c(Cl)cc(CNC(=O)OC(C)(C)C)cc2Cl)c(Cl)c1 [Cl4-NHBoc]	–
18 h	475.0 nm	COc1cc(N=Nc2cc(OC)c(CNC(=O)OC(C)(C)C)cc2Cl)c(Cl)cc1CNC(=O)OC(C)(C)C [Cl2,m-OMe2]	–
4 h	432.1 nm	CN(C)c1cc(N=Nc2cc(N(C)C)c(CNC(=O)OC(C)(C)C)cc2Cl)c(Cl)cc1CNC(=O)OC(C)(C)C [Cl2,m-(NMe2)2]	–
197 h	459.8 nm	COc1cc(CNC(=O)OC(C)(C)C)cc(OC)c1/N=N/c1c(OC)cc(CNC(=O)OC(C)(C)C)cc1OC [(OMe)4-NHBoc]	–
–	530.2 nm	CC(C)(C)OC(=O)NCc1ccc(/N=N/c2ccc(CNC(=O)OC(C)(C)C)cc2N2CCCC2)c(N2CCCC2)c1 [(N(CH2)4)2,m-H]	–
16 h	405.5 nm	CN(C)c1cc(N=Nc2cc(N(C)C)c(CNC(=O)OC(C)(C)C)cc2F)c(F)cc1CNC(=O)OC(C)(C)C [F2,m-(NMe2)2]	–
3 m	500.4 nm	CC(C)Sc1cc(CNC(=O)OC(C)(C)C)cc(SC(C)C)c1/N=N/c1c(SC(C)C)cc(CNC(=O)OC(C)(C)C)cc1SC(C)C [(S^iPr)4-NHBoc]	–
75 h	452.5 nm	CC(C)(C)OC(=O)NCc1ccc(N=Nc2ccc(CNC(=O)OC(C)(C)C)cc2F)c(F)c1 [F2,m-H2]	–
2 m	501.3 nm	CC(=O)OCc1cc(I)c(/N=N/c2c(I)cc(COC(C)=O)cc2I)c(I)c1 [I4-OAc]	–
12 h	465.9 nm	CC(C)(C)OC(=O)NCc1cc(Br)c(N=Nc2c(Br)cc(CNC(=O)OC(C)(C)C)cc2Br)c(Br)c1 [Br4-NHBoc]	t1 of exponential fit (lifetime plot of Z isomer) ([1]; after irradiation with 625 nm light, rt, DMSO): 1011 ± 6.62 min
44 m	431.3 nm	CCSc1cc(CNC(=O)OC(C)(C)C)ccc1/N=N/c1ccc(CNC(=O)OC(C)(C)C)cc1SCC [(SEt)2,m-H2]	–
–	–	CC(C)(C)OC(=O)NCc1cc(F)c(/N=N/c2c(F)cc(CNC(=O)OC(C)(C)C)cc2F)c(F)c1 [F]	t1 of 1st order exponential decay fit (decomposition with GSH) [4]: 3748 ± 3.403 s; τ 1/2 (10 mM GSH) [4]: 0.7 h
0.0389 h	543.0 nm	CCSc1cc(CNC(=O)OC(C)(C)C)c(N(C)C)cc1/N=N/c1cc(N(C)C)c(CNC(=O)OC(C)(C)C)cc1SCC [(SEt)2,m-(NMe2)2]	–
0.00556 h	520.8 nm	N#Cc1cc(I)c(/N=N/c2c(I)cc(C#N)cc2I)c(I)c1 [I4-CN]	–
1.25y	454 nm	CC(C)(C)OC(=O)NCc1cc(F)c(N=Nc2c(F)cc(CNC(=O)OC(C)(C)C)cc2F)c(F)c1 [F4-NHBoc]	–

SMILES	τ 1/2 [1, 5]	λ max of n → π* transition [2]	further results
CCOC(=O)c1cc([Se]C)c(/N=N/c2c([Se]C)cc(C(=O)OCC)cc2[Se]C)c([Se]C)c1 [(SeMe)4-ester]	0.000694 h	588.8 nm	–
CCOP(=O)(OCC)c1ccccc1/N=N/c1ccccc1P(=O)(OCC)OCC [(PO(OEt)2)2,m-H]	–	458.2 nm	–
C[Te]c1cccc([Te]C)c1/N=N/c1c([Te]C)cccc1[Te]C [(TeMe)4-H]	–	518.5 nm	–
C[Se]c1cccc([Se]C)c1/N=N/c1c([Se]C)cccc1[Se]C [(SeMe)4-H]	0.0222 h	533.9 nm	–
C[Se]c1cc(CNC(=O)OC(C)(C)C)cc([Se]C)c1/N=N/c1c([Se]C)cc(CNC(=O)OC(C)(C)C)cc1[Se]C [(SeMe)4-NHBoc]	0.00944 h	534.3 nm	–
C[Te]c1cccc(F)c1/N=N/c1c(F)cccc1[Te]C [Te2F2-H]	–	543 nm	–
